Assays:
A375-NRAS^Q61K cells = test: CTGlo Cell Viability Assay, A375-NRAS^Q61K (A375.11) cells, 96 hours; type: cell-based, human; conditions: Homo sapiens, 96 h, A375.11 (A375-NRAS^Q61K) cells; for Emax: lowest % viability achieved
Summary of the method: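 Viability as CellTiter-Glo ATP luminescence after 96 h compound exposure at 37 °C; A375.11 (BRAF V600E/NRAS Q61K) cells at 250/well, top final concentration 10 μM in half-log steps. Signal was background-corrected and set relative to DMSO controls. A 4-parameter logistic fit gave GI50 (50% crossing) and Emax.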

[1] = target: T1, human bile salt export pump (BSEP) efflux transporter (Homo sapiens, UniProt O95342); test: BSEP Vesicular Transport Inhibition Assay (IC50 determination); type: biochemical; conditions: human BSEP (HEK293) vesicles, taurocholate 0.2 μM, 4 mM Mg-ATP, 10 concentrations, 1 replicate
T1 construct: purchased SOLVO Biotechnology Charles River Laboratories, Szeged, Hungary; host or cells: HEK293 (inside out membrane vesicles)
Protocol: The vesicular transport (VT) assays were performed using inside out membrane vesicles derived from HEK293 cells expressing the specified human bile salt export pump (BSEP) efflux transporter. The membrane vesicles were procured from SOLVO Biotechnology Charles River Laboratories, Szeged, Hungary.
The principle of the assay relies on measuring the accumulation of substrate into inside out vesicles containing the efflux transporter. By utilizing inside out vesicles, the ATP-dependent transport of substrate is directed into the vesicular lumen, where low permeability compounds are then essentially trapped.
For the IC50 screen inhibition assay, 10 concentrations of each compound were tested in the presence of ATP (active transport) in 1 replicate.
The solvent control (DMSO) was tested in the presence of ATP (active transport) and in the presence of AMP (background) in 8 replicates.
Vesicular transport inhibition assays were performed using the specific parameters for each transporter inhibition assay described in Table 53.
Table 54 specifies treatment groups and concentration of compounds, that were examined in the vesicular transport inhibition assay. Detailed data of IC50 screen inhibition assay are shown in Table 55 and detailed data of 1 concentration inhibition assay are shown in Table 56.
The vesicular transport inhibition assay was performed with 4 mM Mg-ATP. For the IC50 screen inhibition assay, 10 concentrations of each compound were tested in the presence of ATP in 1 replicate. For the 1 concentration inhibition assay, 1 concentration of each compound was tested in the presence of ATP (active transport) in 2 replicates. The solvent control (DMSO) was tested in the presence of 4 mM Mg-ATP (active transport) and in the presence of 4 mM AMP (background) in 8 replicates.
The BSEP membrane vesicle suspension was mixed with the ice-cold transport buffer, then the taurocholate probe substrate solution was added (Reaction mixture, 50 μL per well). The compounds were added to the reaction mixture at 1.5-times the final assay concentration. […].
Reaction mixtures and the start reagent (Mg-ATP or AMP in transport buffer) were pre-warmed separately for 15 minutes to reach the incubation temperature of 37° C. […]
The reaction was initiated by the addition of the start reagent (25 μL) to the reaction mixture (diluting the reaction mixture to the final concentration). […] After the 5-minute incubation at 37° C., the reaction was stopped by the addition of 250 μL ice-cold washing mix to each well. […]
The samples were then be transferred to a filter plate and washed with 200 μL cold washing mix5-times to remove any free compounds or taurocholate probe substrate. The amount of taurocholate probe substrate inside the filtered vesicles were determined by liquid scintillation counting. […]

T1 sequence (O95342 whole entry): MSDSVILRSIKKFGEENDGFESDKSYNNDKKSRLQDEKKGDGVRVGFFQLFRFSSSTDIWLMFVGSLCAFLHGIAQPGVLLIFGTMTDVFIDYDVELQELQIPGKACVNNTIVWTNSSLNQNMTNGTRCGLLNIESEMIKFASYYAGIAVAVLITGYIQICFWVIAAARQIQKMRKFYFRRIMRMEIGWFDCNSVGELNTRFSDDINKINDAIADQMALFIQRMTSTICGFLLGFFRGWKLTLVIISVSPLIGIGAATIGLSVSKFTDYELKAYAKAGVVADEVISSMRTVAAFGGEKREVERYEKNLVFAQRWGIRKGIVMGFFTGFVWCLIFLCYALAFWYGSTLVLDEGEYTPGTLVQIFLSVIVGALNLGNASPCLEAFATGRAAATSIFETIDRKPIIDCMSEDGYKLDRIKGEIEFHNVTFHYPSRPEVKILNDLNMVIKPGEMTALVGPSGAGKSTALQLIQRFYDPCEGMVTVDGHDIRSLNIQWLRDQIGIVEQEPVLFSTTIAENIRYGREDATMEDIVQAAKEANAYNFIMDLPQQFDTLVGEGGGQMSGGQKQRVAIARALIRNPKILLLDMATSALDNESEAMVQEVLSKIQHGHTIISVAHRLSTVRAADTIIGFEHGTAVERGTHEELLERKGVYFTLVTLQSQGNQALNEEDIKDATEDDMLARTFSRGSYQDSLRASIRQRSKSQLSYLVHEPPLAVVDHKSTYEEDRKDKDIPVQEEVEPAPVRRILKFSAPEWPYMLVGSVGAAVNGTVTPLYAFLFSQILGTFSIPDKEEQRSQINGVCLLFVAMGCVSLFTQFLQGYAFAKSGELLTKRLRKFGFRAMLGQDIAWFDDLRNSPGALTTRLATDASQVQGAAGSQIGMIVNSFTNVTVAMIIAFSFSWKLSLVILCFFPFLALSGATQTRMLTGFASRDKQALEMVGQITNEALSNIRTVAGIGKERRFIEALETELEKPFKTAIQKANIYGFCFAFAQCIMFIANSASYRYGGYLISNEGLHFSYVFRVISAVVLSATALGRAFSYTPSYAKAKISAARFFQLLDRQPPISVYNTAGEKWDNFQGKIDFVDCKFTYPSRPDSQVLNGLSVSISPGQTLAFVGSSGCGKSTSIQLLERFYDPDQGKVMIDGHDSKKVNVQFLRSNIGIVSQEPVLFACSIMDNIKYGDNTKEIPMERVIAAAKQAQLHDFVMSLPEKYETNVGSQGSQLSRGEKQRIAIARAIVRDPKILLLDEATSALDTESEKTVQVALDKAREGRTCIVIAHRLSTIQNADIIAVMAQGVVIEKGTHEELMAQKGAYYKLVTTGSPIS

SMILES	GI50 (A375-NRAS^Q61K cells) [µM]	Emax (A375-NRAS^Q61K cells) [%]	BSEP Inhibition/IC50 ([1]; in nM)	BSEP Inhibition/IC50 [1] [µM]
CCN(C)S(=O)(=O)Nc1ccc(F)c(Oc2ccc3ncn([C@H]4COC5(CCN(C6CC7(C6)CN(c6cc8c(cc6F)c(N6CCC(=O)NC6=O)nn8C)C7)CC5)C4)c(=O)c3c2)c1C#N [Compound 26, (3R)-3-[6-[2-cyano-3-[[ethyl(methyl)sulfamoyl]amino]-6-fluoro-phenoxy]-4-oxo-quinazolin-3-yl]-8-[2-[3-(2,4-dioxohexahydropyrimidin-1-yl)-5-fluoro-1-methyl-indazol-6-yl]-2-azaspiro[3.3]heptan-6-yl]-1-oxa-8-azaspiro[4.5]decane]	< 1	50 to 90	21770	
CCN(C)S(=O)(=O)Nc1ccc(F)c(Oc2ccc3ncn(C4CC5(CCN(C6CC7(C6)CN(c6cc8c(cc6F)c(N6CCC(=O)NC6=O)nn8C)C7)CC5)C4)c(=O)c3c2)c1C#N (stereo not drawn) [Compound 141, 6-[2-cyano-3-[[ethyl(methyl)sulfamoyl]amino]-6-fluoro-phenoxy]-3-[7-[2-[3-(2,4-dioxohexahydropyrimidin-1-yl)-5-fluoro-1-methyl-indazol-6-yl]-2-azaspiro[3.3]heptan-6-yl]-7-azaspiro[3.5]nonan-2-yl]-4-oxo-quinazoline]	< 1	50 to 90	>40000	
CO[C@@H]1CCN(S(=O)(=O)Nc2ccc(F)c(Oc3ccc4ncn([C@H]5COC6(CCN(C7CC8(C7)CN(c7cc9c(cc7F)c(N7CCC(=O)NC7=O)nn9C)C8)CC6)C5)c(=O)c4c3)c2C#N)C1 [Compound 144, (3R)-N-[2-cyano-3-[3-[(3R)-8-[2-[3-(2,4-dioxohexahydropyrimidin-1-yl)-5-fluoro-1-methyl-indazol-6-yl]-2-azaspiro[3.3]heptan-6-yl]-1-oxa-8-azaspiro[4.5]decan-3-yl]-4-oxo-quinazolin-6-yl]oxy-4-fluoro-phenyl]-3-methoxy-pyrrolidine-1-sulfonamide]	< 1	< 50		7.94
CCN(C)S(=O)(=O)Nc1ccc(F)c(Oc2ccc3ncc([C@H]4COC5(CCN(C6CC7(C6)CN(c6cc8c(cc6F)c(N6CCC(=O)NC6=O)nn8C)C7)CC5)C4)nc3c2)c1C#N [Compound 158, (3S)-3-[7-[2-cyano-3-[[ethyl(methyl)sulfamoyl]amino]-6-fluoro-phenoxy]quinoxalin-2-yl]-8-[2-[3-(2,4-dioxohexahydropyrimidin-1-yl)-5-fluoro-1-methyl-indazol-6-yl]-2-azaspiro[3.3]heptan-6-yl]-1-oxa-8-azaspiro[4.5]decane]	< 1	50 to 90		7.53
CCN(C)S(=O)(=O)Nc1ccc(F)c(Oc2ccc3ncc(C4CC5(CCN(C6CC7(C6)CN(c6cc8c(cc6F)c(N6CCC(=O)NC6=O)nn8C)C7)CC5)C4)nc3c2)c1C#N (stereo not drawn) [Compound 177, 7-[2-cyano-3-[[ethyl(methyl)sulfamoyl]amino]-6-fluoro-phenoxy]-2-[7-[2-[3-(2,4-dioxohexahydropyrimidin-1-yl)-5-fluoro-1-methyl-indazol-6-yl]-2-azaspiro[3.3]heptan-6-yl]-7-azaspiro[3.5]nonan-2-yl]quinoxaline]	< 1	50 to 90		7.36
CCN(C)S(=O)(=O)Nc1ccc(F)c(Oc2ccc3ncn(C4CC5(CCN(C6CC7(CCN(c8cc9c(cc8F)c(N8CCC(=O)NC8=O)nn9C)CC7)C6)CC5)C4)c(=O)c3c2)c1C#N (stereo not drawn) [Compound 198, 6-[2-cyano-3-[[ethyl(methyl)sulfamoyl]amino]-6-fluoro-phenoxy]-3-[7-[7-[3-(2,4-dioxohexahydropyrimidin-1-yl)-5-fluoro-1-methyl-indazol-6-yl]-7-azaspiro[3.5]nonan-2-yl]-7-azaspiro[3.5]nonan-2-yl]-4-oxo-quinazoline]	1 to 10	< 50	15250	
Cn1nc(N2CCC(=O)NC2=O)c2cc(F)c(N3CC4(CC(N5CCC6(CC5)CC(n5cnc7ccc(Oc8c(F)ccc(NS(=O)(=O)C9CCCC9)c8C#N)cc7c5=O)C6)C4)C3)cc21 [Compound 250, N-[2-cyano-3-[3-[7-[2-[3-(2,4-dioxohexahydropyrimidin-1-yl)-5-fluoro-1-methyl-indazol-6-yl]-2-azaspiro[3.3]heptan-6-yl]-7-azaspiro[3.5]nonan-2-yl]-4-oxo-quinazolin-6-yl]oxy-4-fluoro-phenyl]cyclopentanesulfonamide]	< 1	< 50		8.45

More lines, main results first:

GI50 (A375-NRAS^Q61K cells) [µM]	SMILES	Emax (A375-NRAS^Q61K cells) [%]	BSEP Inhibition/IC50 ([1]; in nM)	BSEP Inhibition/IC50 [1] [µM]
1 to 10	CCN(C)S(=O)(=O)Nc1ccc(F)c(Oc2ccc3ncn([C@H]4COC5(CCC(N6CC7(CN(c8ccc(NC9CCC(=O)NC9=O)cc8F)C7)C6)CC5)C4)c(=O)c3c2)c1C#N (stereo partly drawn) [Compound 30, 6-[2-cyano-3-[[ethyl(methyl)sulfamoyl]amino]-6-fluoro-phenoxy]-3-[(3R)-8-[6-[4-[(2,6-dioxo-3-piperidyl)amino]-2-fluoro-phenyl]-2,6-diazaspiro[3.3]heptan-2-yl]-1-oxaspiro[4.5]decan-3-yl]-4-oxo-quinazoline]	< 50		8.52
1 to 10	Cn1nc(N2CCC(=O)NC2=O)c2cc(F)c(N3CC4(CC(N5CCC6(CC5)C[C@@H](n5cnc7ccc(Oc8c(F)ccc(NS(=O)(=O)N9CC[C@@H](F)C9)c8C#N)cc7c5=O)CO6)C4)C3)cc21 [Compound 133, (3R)-N-[2-cyano-3-[3-[(3R)-8-[2-[3-(2,4-dioxohexahydropyrimidin-1-yl)-5-fluoro-1-methyl-indazol-6-yl]-2-azaspiro[3.3]heptan-6-yl]-1-oxa-8-azaspiro[4.5]decan-3-yl]-4-oxo-quinazolin-6-yl]oxy-4-fluoro-phenyl]-3-fluoro-pyrrolidine-1-sulfonamide]	< 50		6.22
< 1	CCN(C)S(=O)(=O)Nc1ccc(F)c(Oc2ccc3ncn(C4CC5(CCN(C6CCN(c7cc8c(cc7F)c(N7CCC(=O)NC7=O)nn8C)CC6)CC5)C4)c(=O)c3c2)c1C#N [Compound 156, 6-[2-cyano-3-[[ethyl(methyl)sulfamoyl]amino]-6-fluoro-phenoxy]-3-[7-[1-[3-(2,4-dioxohexahydropyrimidin-1-yl)-5-fluoro-1-methyl-indazol-6-yl]-4-piperidyl]-7-azaspiro[3.5]nonan-2-yl]-4-oxo-quinazoline]	50 to 90	>40000	
< 1	CO[C@H]1CCN(S(=O)(=O)Nc2ccc(F)c(Oc3ccc4ncn([C@H]5COC6(CCN(C7CC8(C7)CN(c7cc9c(cc7F)c(N7CCC(=O)NC7=O)nn9C)C8)CC6)C5)c(=O)c4c3)c2C#N)C1 [Compound 157, (3S)-N-[2-cyano-3-[3-[(3R)-8-[2-[3-(2,4-dioxohexahydropyrimidin-1-yl)-5-fluoro-1-methyl-indazol-6-yl]-2-azaspiro[3.3]heptan-6-yl]-1-oxa-8-azaspiro[4.5]decan-3-yl]-4-oxo-quinazolin-6-yl]oxy-4-fluoro-phenyl]-3-methoxy-pyrrolidine-1-sulfonamide]	50 to 90		8.83
< 1	COC1CN(S(=O)(=O)Nc2ccc(F)c(Oc3ccc4ncn([C@H]5COC6(CCN(C7CC8(C7)CN(c7cc9c(cc7F)c(N7CCC(=O)NC7=O)nn9C)C8)CC6)C5)c(=O)c4c3)c2C#N)C1 [Compound 246, N-[2-cyano-3-[3-[(3R)-8-[2-[3-(2,4-dioxohexahydropyrimidin-1-yl)-5-fluoro-1-methyl-indazol-6-yl]-2-azaspiro[3.3]heptan-6-yl]-1-oxa-8-azaspiro[4.5]decan-3-yl]-4-oxo-quinazolin-6-yl]oxy-4-fluoro-phenyl]-3-methoxy-azetidine-1-sulfonamide]	< 50		8.79

— US20260297060A1, “COMPOUNDS FOR THE DEGRADATION OF MUTANT BRAF” (C4 THERAPEUTICS, INC., priority 2023, published 2026)
